Our source for the inhibition and IC50 values is patent US8846704B2, “Thiopyrimidine-based compounds and uses thereof” (YM Biosciences Austraila Pty Ltd, priority 2007, dated 2014).

The target in one assay is T1, KDR(h) (Homo sapiens, UniProt P35968).
T1 construct: purchased Upstate Biotechnology (Dundee, UK), KinaseProfiler service
Put plainly: Upstate KinaseProfiler enzyme assay, KDR. As to conditions: 500 nM compound; read-out: Percent inhibition at 500 nM KDR(h). It is filed as biochemical. A digest of the protocol:
(§1)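 Contract enzyme profiling under a general kinase protocol. Each kinase was pre-diluted to a 10× working concentration in 20 mM MOPS pH 7.0 with 1 mM EDTA, 0.1% β-mercaptoethanol, 0.01% Brij-35, 5% glycerol and 1 mg/ml BSA before addition. Substrates were prepared as working stocks in de-ionised water.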

A further assay concerns the target T2, Bmx(h) (Homo sapiens, UniProt P51813).
T2 construct: purchased Upstate Biotechnology (Dundee, UK), KinaseProfiler service
T2 sequence (P51813 1-675): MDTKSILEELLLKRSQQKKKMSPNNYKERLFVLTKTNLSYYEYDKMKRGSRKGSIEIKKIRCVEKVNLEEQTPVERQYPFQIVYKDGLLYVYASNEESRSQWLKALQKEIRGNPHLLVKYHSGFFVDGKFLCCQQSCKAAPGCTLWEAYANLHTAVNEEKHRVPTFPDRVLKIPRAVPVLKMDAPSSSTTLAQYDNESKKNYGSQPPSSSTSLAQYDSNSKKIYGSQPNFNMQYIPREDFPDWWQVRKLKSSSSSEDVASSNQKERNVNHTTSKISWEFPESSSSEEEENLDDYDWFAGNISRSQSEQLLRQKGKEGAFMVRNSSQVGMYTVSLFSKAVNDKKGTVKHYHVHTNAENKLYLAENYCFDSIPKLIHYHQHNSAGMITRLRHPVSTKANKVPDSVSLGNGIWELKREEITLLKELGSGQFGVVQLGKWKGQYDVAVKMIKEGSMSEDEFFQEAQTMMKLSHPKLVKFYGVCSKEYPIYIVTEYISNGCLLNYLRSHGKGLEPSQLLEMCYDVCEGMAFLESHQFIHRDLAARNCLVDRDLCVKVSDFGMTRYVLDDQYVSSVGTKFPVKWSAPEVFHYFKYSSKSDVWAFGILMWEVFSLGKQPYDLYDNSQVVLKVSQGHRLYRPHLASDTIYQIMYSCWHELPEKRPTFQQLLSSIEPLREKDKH
In words: Upstate KinaseProfiler enzyme assay, Bmx. As to conditions: 500 nM compound; read-out: Percent inhibition at 500 nM Bmx(h). It is filed as biochemical. An outline of the steps: as §1

A further assay concerns the target T3, human JAK3 (Homo sapiens, UniProt P52333).
T3 construct: The kinase domain of human JAK3 was amplified; GST (N); made in house; host or cells: Sf9 insect cells (baculovirus)
Put plainly: Alphascreen tyrosine kinase enzyme assay, JAK3 kinase domain. It is filed as biochemical. The settings on record: read-out: JAK3 IC50_nM. An outline of the steps: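 GST-affinity-purified human JAK3 kinase domain (baculovirus/Sf9) was pre-incubated 20 min with compound ([…]) in HEPES pH 7.5 buffer with MgCl2, vanadate and Tween 20. Biotinylated peptide substrate ([…]) and ATP were then added; phosphotyrosine was detected by AlphaScreen PY100 acceptor and streptavidin donor beads after 2–3 h.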

A further assay deals with T4, Blk(m) (Mus musculus, UniProt P16277).
T4 construct: purchased Upstate Biotechnology (Dundee, UK), KinaseProfiler service
T4 sequence (P16277 whole entry): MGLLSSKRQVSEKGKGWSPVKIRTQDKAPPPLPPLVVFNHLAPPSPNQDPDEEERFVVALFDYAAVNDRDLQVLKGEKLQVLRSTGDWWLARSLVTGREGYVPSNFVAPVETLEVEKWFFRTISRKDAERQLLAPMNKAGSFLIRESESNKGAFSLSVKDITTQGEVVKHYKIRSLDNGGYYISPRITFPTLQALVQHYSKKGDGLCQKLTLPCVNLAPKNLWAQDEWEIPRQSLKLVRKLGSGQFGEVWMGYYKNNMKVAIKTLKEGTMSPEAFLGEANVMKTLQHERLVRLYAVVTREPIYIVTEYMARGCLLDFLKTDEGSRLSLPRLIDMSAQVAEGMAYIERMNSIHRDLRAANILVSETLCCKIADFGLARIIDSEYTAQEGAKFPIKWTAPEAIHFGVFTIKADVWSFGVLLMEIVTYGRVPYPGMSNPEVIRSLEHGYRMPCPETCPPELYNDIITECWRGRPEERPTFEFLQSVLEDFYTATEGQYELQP
Put plainly: Upstate KinaseProfiler enzyme assay, Blk. The settings on record: 500 nM compound; read-out: Percent inhibition at 500 nM Blk(m). It is filed as biochemical. A digest of the protocol:
as §1

In the next assay the test system is BaF3 wild-type cells. Put plainly: Cellular screening, BaF3 wild-type cells, Alamar Blue. Format: cell-based. The settings on record: Mus musculus, 40 hr, read-out: BAF3wt IC50_nM. A digest of the protocol: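 Cells were cultured in DMEM with 10% FCS and 10% WEHI 3B conditioned medium, and suspensions were prepared at 1.1× final (50,000–200,000 cells/mL). Compounds from 20 μM dilution plates were added at 10× final and incubated for 40 hr at 37° C, 5% CO2. Alamar Blue was then added for 4–6 hours and read at 544 nm.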
In general terms: Alamar Blue is a resazurin reagent that responds to reducing activity.

The next assay concerns the target T5, human JAK2 (Homo sapiens, UniProt O60674).
T5 construct: The kinase domain of human JAK2 was amplified; GST (N); made in house; host or cells: Sf9 insect cells (baculovirus)
Put plainly: Alphascreen tyrosine kinase enzyme assay, JAK2 kinase domain. It is filed as biochemical. The settings on record: read-out: JAK2 IC50_nM. An outline of the steps: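 JAK2 kinase domain expressed in baculovirus/Sf9 and glutathione-affinity purified. Compounds (final […]) pre-incubated 20 min with enzyme in 10 mM HEPES pH 7.5, MgCl2, NaCl, vanadate, 0.1% Tween 20.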

Structures are written as SMILES.

T3 sequence (P52333 822-1111 limits assumed): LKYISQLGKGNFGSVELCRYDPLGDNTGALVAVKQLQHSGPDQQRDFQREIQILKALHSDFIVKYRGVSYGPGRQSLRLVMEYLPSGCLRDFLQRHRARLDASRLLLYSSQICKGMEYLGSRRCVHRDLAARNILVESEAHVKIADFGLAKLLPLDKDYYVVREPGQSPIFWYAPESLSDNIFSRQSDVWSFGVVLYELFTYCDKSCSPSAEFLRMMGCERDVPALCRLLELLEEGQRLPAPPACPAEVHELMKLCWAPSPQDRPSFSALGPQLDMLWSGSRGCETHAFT
T1 sequence (P35968 20-1356): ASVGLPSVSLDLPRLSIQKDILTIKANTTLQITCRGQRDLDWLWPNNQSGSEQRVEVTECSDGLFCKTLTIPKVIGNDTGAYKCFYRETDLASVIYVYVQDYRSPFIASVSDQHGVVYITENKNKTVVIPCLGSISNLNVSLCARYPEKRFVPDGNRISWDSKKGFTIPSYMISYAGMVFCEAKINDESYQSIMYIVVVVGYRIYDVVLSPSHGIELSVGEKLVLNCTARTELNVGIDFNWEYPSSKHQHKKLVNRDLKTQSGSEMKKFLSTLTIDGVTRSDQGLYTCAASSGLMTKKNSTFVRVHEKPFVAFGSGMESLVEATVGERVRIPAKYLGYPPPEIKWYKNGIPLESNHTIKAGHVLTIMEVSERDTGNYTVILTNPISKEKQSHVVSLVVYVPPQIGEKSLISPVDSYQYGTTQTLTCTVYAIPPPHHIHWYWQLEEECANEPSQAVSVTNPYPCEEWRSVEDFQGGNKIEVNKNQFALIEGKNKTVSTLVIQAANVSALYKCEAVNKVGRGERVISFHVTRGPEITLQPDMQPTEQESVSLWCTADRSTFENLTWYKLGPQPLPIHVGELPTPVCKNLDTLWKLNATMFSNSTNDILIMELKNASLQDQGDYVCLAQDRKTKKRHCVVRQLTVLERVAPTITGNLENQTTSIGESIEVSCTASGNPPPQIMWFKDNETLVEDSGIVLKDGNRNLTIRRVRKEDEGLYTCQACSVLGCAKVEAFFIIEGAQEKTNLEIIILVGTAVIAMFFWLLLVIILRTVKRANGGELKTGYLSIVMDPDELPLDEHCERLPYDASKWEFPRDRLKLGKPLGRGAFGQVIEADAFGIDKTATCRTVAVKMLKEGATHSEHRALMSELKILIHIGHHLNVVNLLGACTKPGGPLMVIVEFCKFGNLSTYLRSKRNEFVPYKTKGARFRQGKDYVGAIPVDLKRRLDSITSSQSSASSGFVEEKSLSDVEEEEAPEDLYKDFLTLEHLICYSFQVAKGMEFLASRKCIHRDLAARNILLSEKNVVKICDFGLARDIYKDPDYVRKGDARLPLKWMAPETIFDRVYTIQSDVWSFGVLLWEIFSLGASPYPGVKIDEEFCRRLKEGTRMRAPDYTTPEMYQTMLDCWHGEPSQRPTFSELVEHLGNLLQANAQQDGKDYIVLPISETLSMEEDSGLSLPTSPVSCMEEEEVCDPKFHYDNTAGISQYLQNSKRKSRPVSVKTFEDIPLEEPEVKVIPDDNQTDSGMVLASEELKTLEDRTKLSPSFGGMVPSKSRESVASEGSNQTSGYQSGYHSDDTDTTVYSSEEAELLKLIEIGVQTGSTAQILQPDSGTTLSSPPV
T5 sequence (O60674 849-1124 limits assumed): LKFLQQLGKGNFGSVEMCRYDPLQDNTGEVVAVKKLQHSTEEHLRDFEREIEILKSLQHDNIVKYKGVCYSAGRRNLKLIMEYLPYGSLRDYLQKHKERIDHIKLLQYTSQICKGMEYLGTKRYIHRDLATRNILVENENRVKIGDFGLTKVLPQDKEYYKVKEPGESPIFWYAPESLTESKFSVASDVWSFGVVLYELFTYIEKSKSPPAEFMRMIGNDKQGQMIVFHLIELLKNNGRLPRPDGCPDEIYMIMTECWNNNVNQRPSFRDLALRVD

As a reminder, the inhibition is how much of the control response was suppressed. Regarding `C=CC(=O)Nc1ccc(Sc2ccnc(Nc3ccc(OC)cc3)n2)cc1` [Compound 74, N-(4-(2-(4-methoxyphenylao)pyrimidin-4-ylthio)phenyl)acrylamide], the inhibition at 0.5 µM on KDR(h), at Bmx(h) and on Blk(m) was 100% each time. In addition, the values for the IC50 on human JAK3, with BaF3 wild-type cells and at human JAK2 were under 100 nM, over 20000 nM and over 1000 nM, respectively.

In the case of `C=CC(=O)Nc1ccc(Sc2ccnc(Nc3ccc(N4CCC(N5CCCC5)CC4)cc3)n2)cc1` [Compound 87, N-(4-(2-(4-(4-(pyrrolidin-1-yl)piperidin-1-yl)phenylao)pyrimidin-4-ylthio)phenyl)acrylamide], the inhibition at 0.5 µM on KDR(h), on Bmx(h) and on Blk(m) was 100% in each case. Moreover, the figures for the IC50 on human JAK3, in the assay with BaF3 wild-type cells and on human JAK2 were under 100 nM, under 5000 nM and over 1000 nM, respectively.

With `C=CC(=O)Nc1ccc(Sc2ccnc(Nc3ccc(OC)c(O)c3)n2)cc1` [Compound 97], the inhibition at 0.5 µM at KDR(h), at Bmx(h) and on Blk(m) was 100% throughout. Moreover, the figures for the IC50 on human JAK3, in the assay with BaF3 wild-type cells and at human JAK2 were under 100 nM, under 20000 nM and over 1000 nM, respectively.

As to `C=CC(=O)Nc1ccc(Sc2ccnc(Nc3ccc(N4CCS(=O)(=O)CC4)cc3)n2)cc1` [Compound 99, N-{4-[(2-{[4-(1,1-dioxo-1λ^6,4-thiomorpholin-4-yl)phenyl]ao}pyrimidin-4-yl)sulfanyl]phenyl}prop-2-enamide], the inhibition at 0.5 µM on KDR(h), at Bmx(h) and on Blk(m) was 100% each time. The IC50 is under 100 nM at human JAK3 and over 1000 nM at human JAK2.

`CC#CC(=O)Nc1ccc(Sc2ccnc(Nc3ccc(N4CCOCC4)cc3)n2)cc1` [Compound 104, N-(4-(2-(4-morpholinophenylao)pyrimidin-4-ylthio)phenyl)but-2-ynamide]: the results for the inhibition at 0.5 µM on Bmx(h) and on Blk(m) were 100% and 30%, respectively. For the same compound, the IC50 was under 100 nM on human JAK3, over 20000 nM with BaF3 wild-type cells and over 1000 nM on human JAK2.

In the case of `C=CC(=O)Nc1ccc(Sc2ccnc(Nc3cccc(OC)c3)n2)cc1` [Compound 105, N-(4-(2-(3-methoxyphenylao)pyrimidin-4-ylthio)phenyl)acrylamide], the inhibition at 0.5 µM at KDR(h), at Bmx(h) and on Blk(m) was 100% in each case. Also, the IC50 is under 100 nM on human JAK3, over 20000 nM in the assay on BaF3 wild-type cells and over 1000 nM on human JAK2.

Take `C=CC(=O)Nc1ccc(Sc2ccnc(Nc3cccc(C#N)c3)n2)cc1` [Compound 118, N-(4-(2-(3-cyanophenylao)pyrimidin-4-ylthio)phenyl)acrylamide]: the inhibition at 0.5 µM at KDR(h), on Bmx(h) and at Blk(m) was 100% each time. Moreover, the IC50 at human JAK3 is under 100 nM; in the assay with BaF3 wild-type cells, over 20000 nM; at human JAK2, over 1000 nM.

`CC(=O)Nc1ccc(Sc2nc(Nc3ccc(N4CCOCC4)cc3)ncc2C)cc1` [Compound 135, N-(4-(5-methyl-2-(4-morpholinophenylao)pyrimidin-4-ylthio)phenyl)acetamide]: the values for the inhibition at 0.5 µM on KDR(h), on Bmx(h) and on Blk(m) were 95%, 58% and 9%, respectively. Also, the IC50 on human JAK3 was under 500 nM; at human JAK2, over 1000 nM.

For the compound `C=CC(=O)Nc1ccc(Sc2ccnc(Nc3ccc(C(=O)OC)cc3)n2)cc1` [Compound 357, methyl 4-(4-(4-acrylamidophenylthio)pyrimidin-2-ylao)benzoate], the inhibition at 0.5 µM at KDR(h) was determined as 95%; on Bmx(h), 48%; at Blk(m), 48%. Further, the IC50 at human JAK3 is under 100 nM; at human JAK2, over 1000 nM.

For `C=CC(=O)Nc1ccc(Sc2ccnc(Nc3ccc(S(=O)(=O)N4CCOCC4)c(OC)c3)n2)cc1` [Compound 373, N-(4-(2-(3-methoxy-4-(morpholinosulfonyl)phenylao)pyrimidin-4-ylthio)phenyl)acrylamide], the IC50 at human JAK3 was under 100 nM; with BaF3 wild-type cells it was under 5000 nM; at human JAK2 it was over 1000 nM.

For `O=C(Nc1ccc(Sc2ccnc(Nc3ccc(N4CCOCC4)cc3)n2)cc1)C1CC1(F)Cl` (centres unmarked) [Compound 378, 2-chloro-2-fluoro-N-(4-(2-(4-morpholinophenylao)pyrimidin-4-ylthio)phenyl)cyclopropanecarboxamide], the IC50 on human JAK3 was under 500 nM; in the assay on BaF3 wild-type cells, under 1000 nM; on human JAK2 it was over 1000 nM.

Consider `Cc1cnc(Nc2ccc(N3CCOCC3)cc2)nc1Sc1ccc(NC(=O)/C(Br)=C\C(=O)O)cc1` [Compound 381, (E)-3-bromo-4-(4-(5-methyl-2-(4-morpholinophenylao)pyrimidin-4-ylthio)phenylao)-4-oxobut-2-enoic acid], for which the IC50 at human JAK3 is under 500 nM; in the assay with BaF3 wild-type cells, over 20000 nM; on human JAK2 it was over 1000 nM.

`Cc1cnc(Nc2ccc(N3CCOCC3)cc2)nc1Sc1ccc(NC(=O)CCC(=O)O)cc1` [Compound 383, 4-(4-(5-methyl-2-(4-morpholinophenylao)pyrimidin-4-ylthio)phenylao)-4-oxobutanoic acid]: the IC50 at human JAK3 is under 100 nM; with BaF3 wild-type cells, under 20000 nM; on human JAK2, under 500 nM.

Regarding `Cc1cnc(Nc2ccc(N3CCOCC3)cc2)nc1Sc1ccc(N2C(=O)CCC2=O)cc1` [Compound 384, 1-(4-(5-methyl-2-(4-morpholinophenylao)pyrimidin-4-ylthio)phenyl)pyrrolidine-2,5-dione], the values for the IC50 on human JAK3, with BaF3 wild-type cells and on human JAK2 were under 100 nM, over 20000 nM and under 500 nM, respectively.

Consider `CNC(=O)CCC(=O)Nc1ccc(Sc2nc(Nc3ccc(N4CCOCC4)cc3)ncc2C)cc1` [Compound 386, N1-methyl-N4-(4-(5-methyl-2-(4-morpholinophenylao)pyrimidin-4-ylthio)phenyl)succinamide], for which the results for the IC50 on human JAK3, in the assay on BaF3 wild-type cells and on human JAK2 were under 500 nM, over 20000 nM and over 1000 nM, respectively.

Turning to `Cc1cnc(Nc2ccc(N3CCOCC3)cc2)nc1Sc1ccc(NC(=O)/C=C/C(=O)O)cc1` [Compound 387, (E)-4-(4-(5-methyl-2-(4-morpholinophenylao)pyrimidin-4-ylthio)phenylao)-4-oxobut-2-enoic acid], the IC50 is under 100 nM at human JAK3, over 20000 nM in the assay with BaF3 wild-type cells and under 1000 nM on human JAK2.

Regarding `CCOC(=O)/C=C\C(=O)Nc1ccc(Sc2nc(Nc3ccc(N4CCOCC4)cc3)ncc2C)cc1` [Compound 388, (Z)-ethyl 4-(4-(5-methyl-2-(4-morpholinophenylao)pyrimidin-4-ylthio)phenylao)-4-oxobut-2-enoate], the figures for the IC50 at human JAK3, with BaF3 wild-type cells and on human JAK2 were under 100 nM, under 5000 nM and under 500 nM, respectively.

Regarding `Cc1cnc(Nc2ccc(N3CCOCC3)cc2)nc1Sc1ccc(N2C(=O)C=CC2=O)cc1` [Compound 390, 1-(4-(5-methyl-2-(4-morpholinophenylao)pyrimidin-4-ylthio)phenyl)-1H-pyrrole-2,5-dione], the IC50 is under 100 nM at human JAK3, under 5000 nM in the assay with BaF3 wild-type cells and under 500 nM at human JAK2.

Regarding `C=CC(=O)Nc1ccc(Sc2ccnc(Nc3ccc4c(c3)OCO4)n2)cc1` [Compound 393, N-(4-(2-(benzo[d][1,3]dioxol-5-ylao)pyrimidin-4-ylthio)phenyl)acrylamide], the values for the IC50 on human JAK3, in the assay with BaF3 wild-type cells and at human JAK2 were under 100 nM, over 20000 nM and over 1000 nM, respectively.
